pEC50: −log10 of the molar value. “Also recorded” adds a separate entry of the source.
Assays:
HsubOR14/HsubOrco = HsubOR14/HsubOrco co-expressed in Xenopus oocytes, two-electrode voltage clamp; conditions: 10^-4 M solution
Description: (§1) Stock solutions (1 M) were dissolved in dimethyl sulfoxide (DMSO) and stored at −20°C. Before experiments, the stock solution was diluted in 1 × Ringer's buffer (96 mM NaCl, 2 mM KCl, 5 mM MgCl2, 0.8 mM CaCl2 and 5 mM HEPES, pH 7.6) to working concentration of 10^−4 M. 1 × Ringer's buffer containing 0.1% DMSO was used as a negative control.
(§2) The vectors contain the full ORF of all ORs were linearized to prepare the templates and the cRNA was synthesized with mMESSAGE mMACHINE SP6 (Ambion). Stage V to VII oocytes were treated with 2 mg/mL collagenase I (GIBCO, Carlsbad, CA) in 1 × Ca^2+-free washing buffer (96 mM NaCl, 2 mM KCl, 5 mM MgCl2 and 5 mM HEPES, pH 7.6) for about 1 h at room temperature. After being cultured overnight at 18°C, oocytes were then microinjected with 27.6 ng of Orco cRNA and 27.6 ng of ORs cRNA. Oocytes microinjected with 55.2 ng of Orco were used as negative controls. Injected oocytes were incubated for 4–7 days at 18°C in 1 × washing buffer (96 mM NaCl, 2 mM KCl, 5 mM MgCl2, 0.8 mM CaCl2 and 5 mM HEPES, pH 7.6) supplemented with 5% dialysed horse serum, 50 mg/mL tetracycline, 100 mg/mL streptomycin and 550 mg/mL sodium pyruvate.
(§3) Whole-cell currents were recorded with a two-electrode voltage clamp from the injected oocytes. Odorant-induced currents were recorded with an OC-725C oocyte clamp (Warner Instruments, Hamden, CT, USA) at a holding potential of −80 mV. […]

HsubOR13/HsubOrco = HsubOR13/HsubOrco co-expressed in Xenopus oocytes, two-electrode voltage clamp; conditions: 10^-4 M solution
Description: as §1, §2, §3

HvirOR6 mutant VM19 = type: cell-based, Heliothis virescens; conditions: 10^-4 M
[1] = tested on: HvirOR6 mutants VM5, VM7, VM10, VM11, VM13, VM14, VM17, VM21, VM22, and VM30; type: cell-based, Heliothis virescens; conditions: 10^-4 M, 10 mutants VM5, VM7, VM10, VM11, VM13, VM14, VM17, VM21, VM22, VM30
[2] = tested on: chimeric OR6s (VSS, SVV, VVS, and SSV); type: cell-based, Heliothis virescens, Heliothis subflexa
[3] = target: VM321 (HvirOR6 L321V, VM6) (Heliothis virescens, UniProt Q8MMI0, L321V); assay: cell-based; type: cell-based; conditions: for response of mutant receptor to compound: 10^-4 M, HvirOR6 L321V (VM6/VM321)
SM321 (HsubOR6 V321L) = SM321 (HsubOR6 V321L) (Heliothis subflexa, UniProt A0A8E4MSQ8, V314L); assay: cell-based; type: cell-based; conditions: for response of mutant receptor compared with HsubOR6: 10^-4 M, HsubOR6 V321L (SM321)
HsubOR6/HsubOrco = HsubOR6/HsubOrco (Heliothis subflexa, UniProt A0A8E4MSQ8); assay: HsubOR6/HsubOrco co-expressed in Xenopus oocytes, two-electrode voltage clamp; type: cell-based; conditions: for response of receptor to compound: 10^-4 M solution
Chain of HsubOR6/HsubOrco (A0A8E4MSQ8 1-424): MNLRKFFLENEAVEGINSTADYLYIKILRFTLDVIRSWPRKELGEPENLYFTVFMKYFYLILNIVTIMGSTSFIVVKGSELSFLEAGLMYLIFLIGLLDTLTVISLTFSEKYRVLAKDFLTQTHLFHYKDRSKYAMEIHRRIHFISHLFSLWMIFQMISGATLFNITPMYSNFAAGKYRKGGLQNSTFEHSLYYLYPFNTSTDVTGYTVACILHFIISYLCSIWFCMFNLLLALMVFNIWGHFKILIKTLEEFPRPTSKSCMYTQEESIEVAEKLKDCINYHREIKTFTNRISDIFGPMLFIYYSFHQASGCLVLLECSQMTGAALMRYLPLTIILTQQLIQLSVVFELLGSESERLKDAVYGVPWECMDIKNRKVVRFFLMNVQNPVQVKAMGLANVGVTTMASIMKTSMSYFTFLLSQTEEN

[4] = tested on: HvirOR6 mutants VM1, VM2, VM3, VM4, VM12, VM15, VM16, VM20, VM23, VM24, VM29, and VM31; type: cell-based, Heliothis virescens; conditions: 10^-4 M, 12 mutants VM1, VM2, VM3, VM4, VM12, VM15, VM16, VM20, VM23, VM24, VM29, VM31
HvirOR6 mutant VM18 = type: cell-based, Heliothis virescens; conditions: 10^-4 M
HvirOR6/HvirOrco = HvirOR6/HvirOrco (Heliothis virescens, UniProt Q8MMI0); assay: HvirOR6/HvirOrco co-expressed in Xenopus oocytes, two-electrode voltage clamp; type: cell-based; conditions: for response of receptor to compound / response (inward current): HvirOR6/HvirOrco Xenopus oocytes; for response (inward current): concentration of 10^-4 M
HsubOR16/HsubOrco = HsubOR16/HsubOrco co-expressed in Xenopus oocytes, two-electrode voltage clamp; conditions: 10^-4 M solution
Description: as §1, §2, §3

[5] = tested on: HvirOR6 mutants VM9 and VM25; type: cell-based, Heliothis virescens; conditions: 10^-4 M
[6] = tested on: HvirOR6 mutants VM8, VM26, VM27, and VM28; type: cell-based, Heliothis virescens; conditions: 10^-4 M

Row | SMILES | response of HvirOR6 mutants compared with HvirOR6 [1] | response of chimeric OR6s compared with original sequences [2] | response of mutant receptor to compound [3] | response of mutant receptor compared with HsubOR6 (SM321 (HsubOR6 V321L)) | response of receptor to compound (HsubOR6/HsubOrco) | response of HvirOR6 mutants compared with HvirOR6 [4] | response of receptor to compound (HvirOR6/HvirOrco) | response (inward current) (HvirOR6/HvirOrco) | other results
1 | CCCC/C=C\CCCCCCCCCCOC(C)=O [Z11-16:OAc, (Z)-11-hexadecenyl acetate] |  |  |  |  |  |  |  |  | response of receptor to compound (HsubOR14/HsubOrco): specifically activated
2 | CCCC/C=C\CCCCCCCCCC=O [Z11-16:Ald, (Z)-11-hexadecenal] |  |  |  |  |  |  |  |  | response of receptor to compound (HsubOR13/HsubOrco): specifically responded
3 | CCCCCC/C=C\CCCCCCCC=O [Z9-16:Ald, (Z)-9-hexadecenal] | did not have altered responses | decreased significantly | retaining the response | increased | responded; also recorded: specifically responsive | significant decrease in the response | responsive | 187.44 nA | response of HvirOR6 mutant compared with HvirOR6 (HvirOR6 mutant VM19): decreased response; pEC50 [3]: 4.39; pEC50 (SM321 (HsubOR6 V321L)): 4.69; average response (inward current) (HsubOR6/HsubOrco; concentration of 10^-4 M): 184.04 nA; pEC50 (HsubOR6/HsubOrco; holding potential -80 mV, read-out: EC50 (dose-response of inward current)): 4.33; response of HvirOR6 mutant compared with HvirOR6 (HvirOR6 mutant VM18): increased response; pEC50 (HvirOR6/HvirOrco): 4.61
4 | CCCC/C=C\CCCCCCCCCCO [Z11-16:OH, (Z)-11-hexadecen-1-ol] |  |  |  |  |  |  |  |  | response of receptor to compound (HsubOR16/HsubOrco): responded robustly
5 | CCCC/C=C\CCCCCCCC=O [Z9-14:Ald, (Z)-9-tetradecenal] | did not have altered responses | decreased significantly | lost its response; also recorded: lost its ability to bind | remained unchanged | little if any response; also recorded: lost its ability to recognize | significant decrease in the response | responsive | 1,541.96 nA | response of HvirOR6 mutants compared with HvirOR6 [5]: decreased responses; response of HvirOR6 mutants compared with HvirOR6 [6]: increased responses; response to Z9-14:Ald relative to that to Z9-16:Ald (HvirOR6/HvirOrco; 10^-4 M, HvirOR6): about 8.23 times
